2 molecules from patent US10640492B2, “Tubulin inhibitor” (SHENZHEN NEPTUNUS PHARMACEUTICAL RESEARCH INSTITUTE CO., …, priority 2016, dated 2020) can be followed below.

The test system of data set [1] is drug-resistant MES-SA cells (p-glycoprotein induced). The experiment in a line: Inhibitory effect on tumor proliferation, drug-resistant MES-SA transplanted tumor. The data set is classed as in vivo. Conditions: drug-resistant MES-SA nude mice, dose that does not reduce body weight, vs blank vehicle (FIG. 1). The procedure:
MES-SA cells (derived from ATCC) were cultured in low concentration of adriamycin for a long time to maintain sufficient cell viability and induced the expression of p-glycoprotein. After culturing for 10 months, the results of induced expression were detected by WB. After successful induction, the cells were cultured for one week in adriamycin-free medium. The tumor cells with adjusted concentration were inoculated into the armpit of nude mice. The transplanted tumors were treated with different drugs when they grew to a certain volume. Different doses of different drugs were administrated to blank mice to explore the drug dose not affecting the body weight of the animals, namely the dose to be administrated to treat the animals with transplanted tumors.

The test system of data set [2] is blood flow distribution in tissues and tumor tissue. The experiment in a line: Blood flow distribution of tissues and tumor. It is filed as in vivo, nude mice. Conditions: two hours after administration, same pharmacodynamic dose, vs blank vehicle. From the text:
In this example, the effects of drugs on blood flow distribution of different tissues and organs at the same pharmacodynamic dose were simultaneously tested.

The subject of data set [3] is HT-1080 human fibrosarcoma cell strain.
Protocol: (§1) To test the cytotoxic IC50 values of 14 candidate compounds against 5 cell strains (MDA-MB-231, HT-1080, AGS, A-673 & HUVEC) using a CCK-8 test kit.
(§2) a) The compound was serially diluted with DMSO starting from 0.5 μM, using twice echelon dilution.
(§3) The logarithmic growth phase cells were collected and counted. The cells were re-suspended in complete medium, whose concentration was adjusted according to the test results of the cell density optimization, and then seeded into 96-well plates with 100 μl of the cell suspension to each well. The cells were incubated in a 37° C., 100% relative humidity, 5% CO2 incubator for 24 hours.
(§4) b) The test compound was diluted with the medium to the corresponding action concentrations set up, and added into the cells in the plates at 25 μl/well. The test compound was prepared in 9 final action concentrations, which were obtained by sequentially diluted from 500 nM using twice echelon dilution.
(§5) c) The cells were incubated in a 37° C., 100% relative humidity, 5% CO2 incubator for 72 hours.
(§6) d) The medium was removed from the cells, and a complete medium containing 10% CCK-8 was added and incubated in a 37° C. incubator for 1-4 hours.
(§7) e) After gentle shaking, the absorbance at 450 nm of the sample was measured on a SpectraMax M5 Microplate Reader, and the inhibition ratio was calculated using the absorbance at 650 nm as reference.
(§8) The inhibition ratio of the drug on tumor cell growth was calculated as follows: tumor cell growth inhibition %=[(Ac−As)/(Ac−Ab)]×100%
(§9) The IC50 curve was fitted and the IC50 value was calculated using the software Graphpad Prism 5 and using the calculation formula log(inhibitor) vs. normalized response-variable slope or log(inhibitor) vs. response-variable slope.
Data set [4] concerns AGS human gastric adenocarcinoma cell strain.
Protocol: AGS human gastric adenocarcinoma cell strain (purchased from Shanghai Cell Resource Center, Chinese Academy of Sciences)
as §2, §3, §4, §5, §6, §7, §8, §9
Data set [5] relates to A-673 human rhabdomyosarcoma cell strain.
Protocol: as §1, §2, §3, §4, §5, §6, §7, §8, §9
The test system of data set [6] is HUVEC human umbilical vein endothelial cell strain.
Protocol: HUVEC human umbilical vein endothelial cell strain (purchased from ScienCell Research Laboratories, Cat #8000, Lot #11233)
as §2, §3, §4, §5, §6, §7, §8, §9
The subject of data set [7] is MDA-MB-231 human breast cancer cell strain.
Protocol: as §1
MDA-MB-231 human breast cancer cell strain (purchased from Shanghai Cell Resource Center, Chinese Academy of Sciences)
as §2, §3, §4, §5, §6, §7, §8, §9
The test system of data set [8] is neutrophil count. Conditions: rat, in vivo.
Description: (§10) Multiple doses of different drugs were administrated to the nude mice respectively and the potency of the drugs in inhibiting the transplanted tumor in the nude mice was investigated. Base on the investigation, the equivalent dose of each drug was identified and converted to rat dose before administrated to the rats. That is, by administrating the rats with relatively equivalent pharmacodynamic dose, the effect of the drugs on the neutrophil count was examined. After continuously administration for two weeks, blood samples were collected and neutrophil counts were measured (FIG. 3).
A short description of data set [9]: Stability investigation (10-day accelerated stress testing).
Protocol: The tested conditions included 40° C., 60° C., humidity 75%, humidity 92.5%, and light. And under each condition, moisture, purity, maximum single impurity and total impurity of the compound tested were compared to that of day 0.
Data set [10] deals with tumor cells inoculated in nude mice. The note with it: mouse, in vivo. The procedure:
The nude mice inoculated with tumor cells were administrated with blank vehicle, docetaxel, compound 17 as well as the combination drug of docetaxel and compound 17. The tumor volume was measured at different time period after the administration and the change of tumor volume was evaluated. At the same time, the change of body weight of the nude mice was examined to evaluate the antitumor effect and the toxicity degree of the drug. In addition, based on the above administration and grouping methods, the blood neutrophil count level for normal SD rats was measured before administration and after the final administration to evaluate the influence of the drug on neutrophil counts.

The next data set relates to blood neutrophil count. The data set can be described thus: Neutrophil count after compound 17 in combination with docetaxel. Conditions: normal SD rats, after final administration (FIG. 2C). It is filed as in vivo.
For data set [11], the system named is neutrophil count. The data set can be described thus: Effect on the neutrophil count at equivalent pharmacodynamic dose. Conditions: rats, continuous administration for two weeks (FIG. 3).
Description: as §10

Structures are written as SMILES. Where two headings read alike, the source gives them in different places. Bounds are passed on as bounds.

In general, IC50 refers to the point on the concentration scale where inhibition reaches its midpoint. A higher IC50 goes with lower potency. As for `C=CC(C)(C)c1[nH]cnc1/C=C1\NC(=O)[C@H](Cc2ccccc2)NC1=O` [(−)phenylahistin, reference compound], the “anti-tumor proliferation effect (tumor weight)” value in data set [1] is given as “almost had no effect against tumor proliferation”. Also, the “distribution of blood flow in tissues except tumor tissues” value in data set [2] is recorded as “did not significantly affect the distribution of blood flow in tissues except tumor tissues”. In addition, in data set [2], the “intratumoral blood flow distribution” value was “can significantly reduce the intratumoral blood flow distribution”. The IC50 in [3], in data set [4], in [5], in data set [6] and in data set [7] was over 600 nM each time. Moreover, in the data set on neutrophil count [8], the neutrophil count entry is recorded as “significantly lower than blank vehicle group”. The Content in data set [9] (40° C., day 5) came out at 97.86%; in data set [9] (40° C., day 10), 98.36%; in data set [9] (60° C., day 5), 95.77%; in [9] (60° C., day 10), 93.45%; in [9] (Day 0), 99.37%. In addition, the Maximum single impurity in data set [9] (40° C., day 5) is reported as 0.73 RRT: 0.58) %; in [9] (40° C., day 10), 1.22 (RRT: 0.58) %; in [9] (60° C., day 5) it was 2.84 (RRT: 0.24) %; in [9] (60° C., day 10), 3.97 (RRT: 0.24) %; in data set [9] (Day 0), 0.39 (RRT: 0.58) %.
`CC(=O)O[C@@]12CO[C@@H]1C[C@H](O)[C@@]1(C)C(=O)[C@H](O)C3=C(C)[C@@H](OC(=O)[C@H](O)[C@@H](NC(=O)OC(C)(C)C)c4ccccc4)C[C@@](O)([C@@H](OC(=O)c4ccccc4)[C@H]21)C3(C)C` [docetaxel, reference compound]: the “anti-tumor proliferation effect (tumor weight)” value in data set [1] was “relatively poor pharmacodynamic effect”. For the same molecule, the “change of body weight (toxicity)” value in [10] is “weight loss of animals caused by the toxicity of docetaxel”. In addition, the blood neutrophil count entry in the data set on blood neutrophil count was “neutrophil count decrease caused by docetaxel”. In addition, in the data set on neutrophil count [11], the neutrophil count entry was “can significantly reduce the neutrophil count”.
